According to patent US5494930A, “Caribenolide I” (priority 1994, dated 1996):
Several values for one entry are separate records, joined by “and”; a condition that tells them apart may be missing. Equal entries are not always repeated.

Tests used:
P388 mouse leukemia [1] = test: In vivo antitumor activity, i.v. implanted P388 mouse leukemia (distal site)
Method: (§1) For in vivo evaluation of antitumor activity 1×10^6 P388 mouse leukemia cells were implanted in the intraperitoneal (i.p.) cavity or injected intravenously (i.v.) into (BALB/c ×DBA/2)F1 (CDF1) or (C57/BL6×DBA/2)F1 (BDF1) mice (Roseet al., 1983). Compound (1) was dissolved in DMSO and diluted with saline to the desired concentrations. Injection of Compound (1) was by the i.p. or i.v. route beginning on the first day after tumor implantation and consecutively every day for five treatments (qldX5:1). Increases in lifespan were reflected by the median survival time of treated (T) versus control (C) groups for which a % T/C was calculated. When antitumor activity was evaluated in M109 mouse lung .tumors, 0.2 ml of a 2.0% brei was implanted subcutaneously (s.c.) in CDF1 mice (Rose, 1981). The treatment schedule was one injection per day for days 4-8 after tumor implantation. Results are expressed as % T/C. Tumor growth inhibition was determined by calculating the relative median times for T and C mice to reach a 1 g size. Tumor weights were interchangeable with tumor size on the basis of 1 mm^3 =1 mg. The activity criterion for tumor growth inhibition (T-C) was approximately equal to a T-C of 4 days. Depending on the tumor volume doubling time for the M109 tumors in control mice, this amount of delay in tumor growth is consistent with about one log of cell kill. For both P388 and M109 tumor models, a T/C of […] was considered an active result.
(§2) Initial testing was done versus i.p. implanted P388 mouse leukemia. An optimal dose of 0.03 mg/kg/inj given i.p. produced a 50% increase in lifespan (150% T/C). In addition, Compound (1) was evaluated in two distal site models; i.v. implanted P388 or s.c. implanted M109 in which Compound (1) was given by i.v. injection.

[2] = as above; settings: mouse, in vivo, iv; P388 i.v.; qd 1-5, i.v.; read-out: maximum tolerated dose (MTD)
Method: as §1, §2

P388 mouse leukemia [3] = test: In vivo antitumor activity, i.p. implanted P388 mouse leukemia
Method: as §1, §2

[4] = system: human colon carcinoma cell line HCT 116; test: In vitro cytotoxicity assay (XTT); type: cell-based
Method: Cytotoxicity for the pure compound was assessed in several HCT116 cell lines by XTT (2,3-bis(2-methoxy-4-nitro-5-sulfophenyl)-5-[(phenylamino)carbonyl]-2H-tetrazolium hydroxide assay (Scudiero, 1988). Cells were seeded at 4000 cells/well in 96 well microtiter plates. 24 hrs later drugs were added and serial diluted. The cells were incubated at 37° C. for 72 hrs at which time the tetrazolium dye, XTT, was added. A dehydrogenase enzyme in live cells reduces the XTT to a form that absorbs light at 450 nm and which can be quantitated spectrophotometrically. The greater the absorbance the greater the number of live cells. The results are expressed as an IC50 which is the drug concentration required to inhibit cell proliferation (i.e. absorbance at 450 nm) to 50% of that of untreated control cells.

M109 mouse lung tumors = test: In vivo antitumor activity, s.c. implanted M109 mouse lung tumor (distal site)
Method: as §1, §2

C=C1C(O)CC(=O)C(C)C=C(C)CC(O)C2(O)OC(CCC2O)CC2CCC(O2)C(CCCC)OC(=O)C(C)C(O)C2OC12 (stereo not shown) [Compound (1), caribenolide I]
increase in life span (in words) (P388 mouse leukemia [1]; P388 i.v., doses up to MTD 0.064 mg/kg/inj, i.v.): did not increase the life span | MST, % T/C (median survival time treated vs control) (P388 mouse leukemia [1]; iv, 0.064 mg/kg): 107% | MTD [2]: 0.064 mg/kg | optimal dose (OD) (P388 mouse leukemia [3]; P388 i.p., qd 1-5, i.p.): 0.03 mg/kg/inj and 0.030 mg/kg/inj | MST, % T/C (median survival time treated vs control) (P388 mouse leukemia [3]; ip, 0.03 mg/kg): 150% | increase in lifespan (P388 mouse leukemia [3]; ip, 0.03 mg/kg): 50% | cytotoxicity in vitro (in words) [4]: potent cytotoxicity | IC50 ([4]; human colon carcinoma HCT 116, XTT, 72 hrs): 1.6 nM | MST, % T/C (median survival time treated vs control) (M109 mouse lung tumors; 0.060/0.120 mg/kg/inj, qd 4-8, i.v.): 128% | T-C (tumor growth delay) (M109 mouse lung tumors; 0.060/0.120 mg/kg/inj, qd 4-8, i.v., time to 1 g size): 1.3 days | distal site activity (in words) (M109 mouse lung tumors; i.v. dosing): no meaningful distal site activity | OD, first printed value (M109 mouse lung tumors; qd 4-8, i.v.): 0.060 mg/kg/inj | OD, second printed value (M109 mouse lung tumors; qd 4-8, i.v.): 0.120 mg/kg/inj
